# Measurements: publication PMC8147984, “Effects of Sponge-Derived Alkaloids on Activities of the Bacterial α-D-Galactosidase and Human Cancer Cell α-N-Acetylgalactosaminidase” (Biomedicines, 2021)
# Key:
# [1] = molecular target: T1, α-D-galactosidase (α-PsGal) (Pseudoalteromonas sp. KMM 701, UniProt Q19AX0); test: Inhibitory potency on recombinant α-PsGal (residual activity); format: biochemical; settings: for Residual activity v/v0 (%) of the α-PsGal: preincubated 30 min, 20 °C, pH 7.0
# T1 sequence (Q19AX0 1-710): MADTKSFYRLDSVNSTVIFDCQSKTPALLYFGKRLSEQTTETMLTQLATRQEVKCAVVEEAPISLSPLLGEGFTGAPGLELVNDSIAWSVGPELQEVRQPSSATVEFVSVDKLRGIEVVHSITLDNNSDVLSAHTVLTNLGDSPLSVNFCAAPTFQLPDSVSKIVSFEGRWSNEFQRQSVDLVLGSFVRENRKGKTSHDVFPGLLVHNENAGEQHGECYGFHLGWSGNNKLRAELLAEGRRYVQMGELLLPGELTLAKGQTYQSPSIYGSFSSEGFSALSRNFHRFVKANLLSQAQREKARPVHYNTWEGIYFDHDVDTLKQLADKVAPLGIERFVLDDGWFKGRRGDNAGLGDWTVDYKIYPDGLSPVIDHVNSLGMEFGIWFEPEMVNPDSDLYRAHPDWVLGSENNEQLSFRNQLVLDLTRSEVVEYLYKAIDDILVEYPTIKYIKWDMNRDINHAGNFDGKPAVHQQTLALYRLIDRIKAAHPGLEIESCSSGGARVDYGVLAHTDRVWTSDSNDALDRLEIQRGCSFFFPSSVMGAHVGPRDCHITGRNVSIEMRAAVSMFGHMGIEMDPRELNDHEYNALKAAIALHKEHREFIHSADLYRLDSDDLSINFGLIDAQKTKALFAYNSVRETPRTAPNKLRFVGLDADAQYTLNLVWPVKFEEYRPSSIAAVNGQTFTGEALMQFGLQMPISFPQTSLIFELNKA
# Description: The recombinant wild-type α-D-galactosidase (α-PsGal) was produced as described earlier. The plasmid DNA pET-40b(+) containing insertion of the gene from the marine bacterium Pseudoalteromonas sp. KMM 701 encoding α-PsGal was transformed in the Escherichia coli strain Rosetta (DE3). Heterological expression was carried out at optimal conditions as described earlier. Purification of the recombinant […] was performed, according to described procedures. The purification quality was controlled by 12% Laemmli-SDS-PAGE-electrophoresis.
# (§1) The activity of α-PsGal and α-NaGalase were determined by increasing the amount of p-nithrophenol (pNP). To assay the α-NaGalase activity 0.05 mL of cell extract and 0.1 mL of substrate pNPNA-α-Gal (8.8 mM) in 0.05 M sodium citrate buffer, pH 5.0 were placed in cells of 96-well plate and incubated at 37 °C for 30 min. The mixtures containing 0.05 mL of an enzyme solution and 0.1 mL of a substrate solution (3.3 mM) in 0.05 M sodium phosphate buffer (pH 7.0) were incubated at 20 °C during 5 min for determination of α-PsGal standard activity. The reactions were stopped by the addition of 0.15 mL of 1 M Na2CO3 solution.
# Absorbance was measured at 400 nm. Results were read with a computer program Gen5 and treated with ExCel computer program. The unit of standard activity (U) was defined as the amount of the enzyme catalyzing the formation of 1 µmol of p-nitrophenol (ε400 = 18,300 M^−1 cm^−1) per 1 min under the conditions indicated. Specific activity (A) was calculated as the enzyme activity (U) per 1 mg of protein. All calculations were based on reactions with consumption of 10% of the chromogenic substrate. The protein concentrations were estimated by the Bradford method with BSA as a standard. Residual activity (%) was calculated with formula: Residual activity (%) = v/v0 ×100, where v is the initial reaction rate of enzymes under the action of an inhibitor or other factors, v0 is the initial reaction rate of enzymes in the absence of the influence of any factors. Buffer solutions of α-PsGal (0.1 U/mL) and α-NaGalase (0.01 U/mL) were used in the further experiments.
# In the control sample, 5 μL of water or 2 μL of EtOH were added to 25 μL of enzyme solution. The enzyme reaction was initiated by adding 120 μL of the substrate pNP-α-Gal (3.3 mM) for α-PsGal or pNPNA-α-Gal (8.8 mM) for α-NaGalase in the respective buffer solutions. After 10 min for α-PsGal or 60 min for α-NaGalase the reaction was stopped by adding 150 μL of 1 M Na2CO3. The amount of pNP was quantified by spectrophotometric detection at 400 nm. Results were evaluated as the percent of residual activity as described above.
# DLD-1 cells = test: MTS cytotoxic activity assay on DLD-1 cells; format: cell-based, human; settings: for cytotoxicity against DLD-1 cells: dose up to 20 μM
# Description: DLD-1 cells (8 × 10^3/200 μL) were seeded in 96-well plates for 24 h at 37 °C in a 5% CO2 incubator. The cells were treated with compounds 1–9 at concentrations ranging from 0 to 20 μM for an additional 24 h. Subsequently, cells were incubated with 15 μL MTS (3-(4,5-dimethylthiazol-2-yl)-5-(3-carboxymethoxyphenyl)-2-(4-sulfophenyl)-2H-tetrazolium) reagent for 3 h, and the absorbance in each well was measured at 490/630 nm using a microplate reader “Power Wave XS” (Bio Tek, Winooski, VT, USA). All the experiments were repeated three times, and the mean absorbance values were calculated. The results are expressed in absorbance by the compound’s treatment compared to the non-treated cells (control 1) and the compounds in medium (control 2). All the experiments were made in triplicate.
# [2] = system: α-NaGalase in human colorectal adenocarcinoma cell line DLD-1; test: Residual α-NaGalase activity (expression) in lysate of DLD-1 cells treated with alkaloids; format: cell-based; settings: DLD-1 cells treated with 5 μM for 24 h
# Description: DLD-1cells (5.0 × 10^5) were seeded in […] for 24 h at 37 °C in a 5% CO2 incubator. Then the cells were treated with compounds 1–9 at concentrations ranging from 0 to 20 μM for an additional 24 h. Then the cells were harvested using 0.02% EDTA, after this 3 mL of cold 15 mM Tris–HCl (pH 7.0) was added.
# Every 3–4 days cells were rinsed in phosphate buffered PBS, detached from the tissue culture flask by 1× trypsin/EDTA solution, harvested with RPMI-1640 medium and centrifuge at 500 rpm for 3 min. The culture media was discarded and cells pellet was resuspended in EDTA/Tris solution and frozen at −80 °C.
# Frozen lysates of cancer cells in the 15 mM Tris buffer, pH 7.0 containing 0.02% EDTA, defrosted and sonicated 10 times during 1 min with a break of 1 min. To remove the cellular detritus, the cell homogenate was centrifuged at 4 °C, 10,000 rpm, 30 min. The supernatant proteins were precipitated with 35% ammonium sulfate, kept during four hours at 4 °C to form a pellet. The protein pellet was collected by centrifugation (4 °C, 10,000 rpm, 30 min) and dissolved in 0.05 M sodium citrate buffer, pH 5.0. The supernatant proteins were precipitated with 75% ammonium sulfate, kept overnight at 4 °C to form a pellet. The protein pellet was collected by centrifugation (4 °C, 10,000 rev/min, 30 min) and dissolved in 0.05 M sodium citrate buffer, pH 5.0. Both extracts were dialyzed against the same buffer, centrifuged to separate the insoluble precipitate. α-NaGalase activity was tested in both extracts and was found only in the protein fraction precipitated with 75% ammonium sulfate. This supernatant was used in further work as partly purified enzyme. The purification quality was controlled by 12% Laemmli-SDS-PAGE-electrophoresis.
# as §1, with “The reactions were stopped by the addition of 0.15 mL of 1 M Na2CO3 solution.” left out
# Absorbance was measured at 400 nm. Results were read with a computer program Gen5 and treated with ExCel computer program. […] Specific activity (A) was calculated as the enzyme activity (U) per 1 mg of protein. […] Residual activity (%) was calculated with formula: Residual activity (%) = v/v0 ×100, where v is the initial reaction rate of enzymes under the action of an inhibitor or other factors, v0 is the initial reaction rate of enzymes in the absence of the influence of any factors. […]
# [3] = molecular target: T1, α-D-galactosidase (α-PsGal); test: Irreversibility of α-PsGal inhibition (dialysis experiment); format: biochemical; settings: dialysis against buffer for 60 h at 4 °C; activity did not recover
# Description: To determine the reversibility of the α-PsGal activity inhibition by alkaloids 2, 3, 8, and 9 15 µL of 0.625 mM aqueous solution of the compounds 2 and 3 or 6 µL of 2.5 mM ethanol solution of the compound 8 and 9 were added to 75 µL of the enzyme solution in 0.05 M sodium phosphate buffer (pH 7.0). After 30 min of the mixture incubation the aliquot of 30 µL was taken and 120 µL of 3.3 mM pNPG solution were added to initiate the reaction; the reaction was stopped by addition of 150 µL of 1M Na2CO3. The α-D-galactosidase activity was determined, as described above. The remaining reaction mixture was dialyzed against 1 L of 0.02 M sodium phosphate buffer (pH 7.0) for 60 h at 4 °C. The buffer was changed 3 times during the dialysis. The enzyme activity was determined, as described above. A sample of α-PsGal treated with H2O or EtOH in the absence of the inhibitor (75 µL of the enzyme solution and 15 µL of H2O or 6 µL of EtOH, respectively) was dialyzed and used as a control for determination of the initial activity. The experiment was carried out in two replicates. The residual activity was calculated as described above.
# [4] = molecular target: T1, α-D-galactosidase (α-PsGal); test: Kinetic studies of α-PsGal inactivation; format: biochemical; settings: pH 7.0, 20 °C; for Ki / kinact: Hill equation fit; for Ki: read-out: Ki, equilibrium inhibition constant; for kinact: read-out: kinact, inactivation rate constant (converted)
# Description: The kinetic parameters Ki and kinact were determined by classic methods. The inactivation of α-PsGal was monitored by incubation of the enzyme with different concentrations of alkaloids in […] sodium phosphate buffer, pH 7.0, at 20 °C in total volume of 30 µL (25 µL and 5 µL of α-PsGal and alkaloids, respectively), which were placed in cells of 96 cells plate. After preincubation of enzyme-inhibitor mixture for 0.5, 5, 10, 15, 20, 25, or 30 min […] the fraction of remaining enzyme activity was measured as a function of time by addition to the inactivation mixture 120 µL of a solution of pNP-α-Gal (3.3 mM). The pseudo-first-order rate constant of inactivation (kobs) was determined for each inactivator concentration as the slope of the v/v0 dependence on the incubation time in semilogarithmic coordinates. The Excel software was used for these calculations. The second order rate constants for the inactivation process were determined by fitting the dependences of the kobs values on the concentration of the inactivators to the Hill or Michaelis–Menten equations. An analysis of the graphs and the choice of models for calculation of inhibition constants (Ki, mM) and inactivation rate constants (kinact, min^–1) were performed with the Origin computer software.
SMILES,inhibitory activity against α-PsGal (in words) [1],Residual activity v/v0 (%) of the α-PsGal ([1]; compound concentration 1.67 mM),"expression of the enzyme α-NaGalase (residual activity of lysate cell α-NaGalase, control 100%) [2] [%]",irreversibility of α-PsGal inhibition [3],"n, Hill's coefficient of cooperativity [4]",Ki [4] [µM],kinact [4] [s⁻¹],Residual activity v/v0 (%) of the α-PsGal ([1]; compound concentration 1.48 mM),further results
"COc1cc2ccnc3c2c(c1OC)NC=C3 [Compound 1, aaptamine]",no notable activity,79 ^1%,–,–,–,–,–,–,cytotoxicity against DLD-1 cells (DLD-1 cells; 24 h): non-cytotoxic
"COc1cc2ccnc3c2c(c1O)N(C)C=C3 [Compound 2, isoaaptamine]",–,0 ^1%,64,irreversibly inactivate,2.17,2.7 ± 0.42,0.002,–,"cytotoxicity against DLD-1 cells (DLD-1 cells; 24 h): weakly cytotoxic; decrease in cell viability (DLD-1 cells; DLD-1 cells, 24 h, at 20 μM): 20%; n, Hill's coefficient of cooperativity ([4]; listed as isoaaptamine (2)): 2.17 ± 0.55"
"COc1cc2ccnc3c2c(c1O)NC=C3 [Compound 3, 9-demethylaaptamine]",–,0 ^1%,57,irreversibly inactivate,0.84,300 ± 77,0.00153,–,"IC50 (DLD-1 cells; Homo sapiens, DLD-1, 24 h, read-out: concentration that caused a 50% reduction in cell viability (IC50) of DLD-1 cells): 17 ± 0.2 µM; n, Hill's coefficient of cooperativity ([4]; listed as 9-demethylaaptamine(3)): 0.84 ± 0.12"
"COc1cc2c3c(cc[n+](C)c3c1[O-])NC(=O)C2=O [Compound 4, aaptanone]",no notable activity,100 ^1%,–,–,–,–,–,–,–
"CN1CCc2cn(C)c3c2C1=CC(=O)C3=O [Compound 5, damirone A]",no notable activity,–,–,–,–,–,–,87 ^2%,–
"CN1CCc2c[nH]c3c2C1=CC(=O)C3=O [Compound 6, damirone B]",no notable activity,–,52,–,–,–,–,87 ^2%,–
"Cn1cc2c3c1C(=O)C(N)=CC3=[N+](C)CC2 [Compound 7, makaluvamine H]",no notable activity,–,50,–,–,–,–,67 ^2%,–
"Cn1cc2c3c1C(=O)C(N/C=C/c1ccc(O)cc1)=CC3=[N+](C)CC2 [Compound 8, makaluvamine G]",low inhibitory activity,–,–,irreversibly inactivate,2.5,411 ± 86,0.00132,28 ^2%,"n, Hill's coefficient of cooperativity ([4]; listed as makaluvamine G (8)): 2.5 ± 0.97"
"CNCCc1cn(C)c2c1C(=O)c1c(-c3ccc(O)cc3)c[nH]c1C2=O [Compound 9, zyzzyanone A]",low inhibitory activity,–,–,irreversibly inactivate,4.1,105 ± 9,0.000617,0 ^2%,"n, Hill's coefficient of cooperativity ([4]; listed as zyzzyanone A (9)): 4.10 ± 1.42"
